Assay results reported in patent US20250324971A1, “HERBICIDAL DERIVATIVES” (SYNGENTA CROP PROTECTION AG, priority 2022, published 2025).

Assays:
Type in all cases: in vivo
Setaria faberi (SETFA) = test: Pre-Emergence Test (herbicidal, glasshouse pots); conditions: rate 250 g/ha, evaluated after 13 days, five-point scale
[1] = test system: Ipomoea hederacea (IPOHE); test: Pre-Emergence Test (herbicidal, glasshouse pots); conditions: evaluated after 13 days, five-point scale
[2] = test system: Echinochloa crus-galli (ECHCG); test: Pre-Emergence Test (herbicidal, glasshouse pots); conditions: evaluated after 13 days, five-point scale
[3] = test system: Amaranthus retoflexus (AMARE); test: Pre-Emergence Test (herbicidal, glasshouse pots); conditions: evaluated after 13 days, five-point scale
Zea mays (ZEAMX) [4] = test: Pre-Emergence Test (herbicidal, glasshouse pots); conditions: evaluated after 13 days, five-point scale
[5] = test system: Amaranthus palmeri (AMAPA); test: Pre-Emergence Test (herbicidal, glasshouse pots); conditions: evaluated after 13 days, five-point scale
[6] = test system: Amaranthus palmeri (AMAPA); test: Post-Emergence Test (herbicidal, glasshouse pots); conditions: evaluated after 13 days
Protocol: (§1) Seeds of a variety of test species are sown in standard soil in pots (Setaria faberi (SETFA), Ipomoea hederacea (IPOHE), Echinochloa crus-galli (ECHCG), (Amaranthus retoflexus (AMARE), Zea mays (ZEAMX), and Amaranthus palmeri (AMAPA)). After 8 days cultivation under controlled conditions in a glasshouse (at 24° C./16° C., day/night; 14 hours light; 65% humidity), the plants arm sprayed with an aqueous spray solution derived from the formulation of the technical active ingredient in acetone/water (50:50) solution containing 0.5% Tween 20 (polyoxyethylene sorbitan monolaurate, CAS RN 9005-84-5). Rate of application is shown in g/ha in the tables below. The test plants are then grown in a glasshouse under controlled conditions in a glasshouse (at 24° C./16° C., day/night; 14 hours light; 65% humidity) and watered twice daily. After 13 days the test is evaluated for the percentage damage caused to the plant. The biological activities are shown in the following table on a five-point scale (5=81-100%; 4=61-80%; 3=41-60%; 2=21-40%; 1=0-20%; -=not tested).

[7] = test system: Amaranthus retoflexus (AMARE); test: Post-Emergence Test (herbicidal, glasshouse pots); conditions: evaluated after 13 days
Protocol: as §1

[8] = test system: Echinochloa crus-galli (ECHCG); test: Post-Emergence Test (herbicidal, glasshouse pots); conditions: evaluated after 13 days
Protocol: as §1

[9] = test system: Ipomoea hederacea (IPOHE); test: Post-Emergence Test (herbicidal, glasshouse pots); conditions: evaluated after 13 days
Protocol: as §1

Zea mays (ZEAMX) [10] = test: Post-Emergence Test (herbicidal, glasshouse pots); conditions: evaluated after 13 days
Protocol: as §1

SMILES	percentage damage caused to the plant, IPHOE ([1]; rate 1000 g/ha)	percentage damage caused to the plant, ECHCG ([2]; rate 1000 g/ha)	percentage damage caused to the plant, AMARE ([3]; rate 1000 g/ha)	percentage damage caused to the plant, ZEAMX (Zea mays (ZEAMX) [4]; rate 1000 g/ha)	percentage damage caused to the plant, AMAPA ([5]; rate 1000 g/ha)	Post-Emergence Test AMAPA percentage damage (five-point scale) ([6]; rate 1000 g/ha)	Post-Emergence Test AMARE percentage damage (five-point scale) ([7]; rate 1000 g/ha)	Post-Emergence Test ECHCG percentage damage (five-point scale) ([8]; rate 1000 g/ha)	Post-Emergence Test IPHOE percentage damage (five-point scale) ([9]; rate 1000 g/ha)	Post-Emergence Test ZEAMX percentage damage (five-point scale) (Zea mays (ZEAMX) [10]; rate 1000 g/ha)	further results
CCn1c(Nc2ccc(F)cc2)cc(=O)c(C(=O)O)c1-c1ccc(Cl)c(Cl)c1 [Compound 9, 2-(3,4-dichlorophenyl)-1-ethyl-6-(4-fluoroanilino)-4-oxo-pyridine-3-carboxylic acid]											percentage damage caused to the plant, SETFA (Setaria faberi (SETFA)): 0; percentage damage caused to the plant, IPHOE ([1]; rate 250 g/ha): 0; percentage damage caused to the plant, ECHCG ([2]; rate 250 g/ha): 0; percentage damage caused to the plant, AMARE ([3]; rate 250 g/ha): 0; percentage damage caused to the plant, ZEAMX (Zea mays (ZEAMX) [4]; rate 250 g/ha): 0; percentage damage caused to the plant, AMAPA ([5]; rate 250 g/ha): 1 (1=0-20%); Post-Emergence Test AMAPA percentage damage (five-point scale) ([6]; rate 250 g/ha): 1 (1=0-20%); Post-Emergence Test AMARE percentage damage (five-point scale) ([7]; rate 250 g/ha): 2 (2=21-40%); Post-Emergence Test ECHCG percentage damage (five-point scale) ([8]; rate 250 g/ha): 1 (1=0-20%); Post-Emergence Test IPHOE percentage damage (five-point scale) ([9]; rate 250 g/ha): 4 (4=61-80%); Post-Emergence Test ZEAMX percentage damage (five-point scale) (Zea mays (ZEAMX) [10]; rate 250 g/ha): 0
CCn1c(Nc2ccc(C)c(C(F)(F)F)c2)cc(=O)c(C(=O)O)c1-c1ccc(Cl)c(Cl)c1 [Compound 23, 2-(3,4-dichlorophenyl)-1-ethyl-6-[4-methyl-3-(trifluoromethyl)anilino]-4-oxo-pyridine-3-carboxylic acid]	0	1 (1=0-20%)	1 (1=0-20%)	0	0	0	1 (1=0-20%)	0	0	0	
CCn1c(Oc2ccc(Cl)c(Cl)c2)cc(=O)c(C(=O)O)c1-c1ccc(Cl)c(Cl)c1 [Compound 18, 6-(3,4-dichlorophenoxy)-2-(3,4-dichlorophenyl)-1-ethyl-4-oxo-pyridine-3-carboxylic acid]	0	0	0	0	0	1 (1=0-20%)	1 (1=0-20%)	0	1 (1=0-20%)	1 (1=0-20%)	
CCn1c(Oc2ccc(Cl)cc2)cc(=O)c(C(=O)O)c1-c1ccc(Cl)c(Cl)c1 [Compound 19, 6-(4-chlorophenoxy)-2-(3,4-dichlorophenyl)-1-ethyl-4-oxo-pyridine-3-carboxylic acid]	1 (1=0-20%)	4 (4=61-80%)	0	1 (1=0-20%)	0	4 (4=61-80%)	5 (5=81-100%)	3 (3=41-60%)	3 (3=41-60%)	3 (3=41-60%)	
CCn1c(Oc2cccc(F)c2)cc(=O)c(C(=O)O)c1-c1ccc(Cl)c(Cl)c1 [Compound 12, 2-(3,4-dichlorophenyl)-1-ethyl-6-(3-fluorophenoxy)-4-oxo-pyridine-3-carboxylic acid]	5 (5=81-100%)	5 (5=81-100%)	4 (4=61-80%)	4 (4=61-80%)	4 (4=61-80%)	5 (5=81-100%)	5 (5=81-100%)	4 (4=61-80%)	5 (5=81-100%)	4 (4=61-80%)	
CCn1c(Oc2cc(F)cc(F)c2)cc(=O)c(C(=O)O)c1-c1ccc(Cl)c(Cl)c1 [Compound 15, 2-(3,4-dichlorophenyl)-6-(3,5-difluorophenoxy)-1-ethyl-4-oxo-pyridine-3-carboxylic acid]	3 (3=41-60%)	4 (4=61-80%)	1 (1=0-20%)	1 (1=0-20%)	1 (1=0-20%)	3 (3=41-60%)	4 (4=61-80%)	3 (3=41-60%)	3 (3=41-60%)	3 (3=41-60%)	
CCn1c(Nc2ncc(F)cc2F)cc(=O)c(C(=O)O)c1-c1ccc(Cl)c(Cl)c1 [Compound 31, 2-(3,4-dichlorophenyl)-6-[(3,5-difluoro-2-pyridyl)amino]-1-ethyl-4-oxo-pyridine-3-carboxylic acid]	1 (1=0-20%)	1 (1=0-20%)	1 (1=0-20%)	1 (1=0-20%)	0	2 (2=21-40%)	2 (2=21-40%)	1 (1=0-20%)	2 (2=21-40%)	0	
CCn1c(Oc2cccc(Cl)c2Cl)cc(=O)c(C(=O)O)c1-c1ccc(Cl)c(Cl)c1 [Compound 17, 6-(2,3-dichlorophenoxy)-2-(3,4-dichlorophenyl)-1-ethyl-4-oxo-pyridine-3-carboxylic acid]	0	0	0	1 (1=0-20%)	0	1 (1=0-20%)	1 (1=0-20%)	1 (1=0-20%)	0	1 (1=0-20%)	
CCn1c(Oc2ccc(OC)cc2)cc(=O)c(C(=O)O)c1-c1ccc(Cl)c(Cl)c1 [Compound 11, 2-(3,4-dichlorophenyl)-1-ethyl-6-(4-methoxyphenoxy)-4-oxo-pyridine-3-carboxylic acid]	5 (5=81-100%)	0	2 (2=21-40%)	1 (1=0-20%)	1 (1=0-20%)	5 (5=81-100%)	5 (5=81-100%)	1 (1=0-20%)	3 (3=41-60%)	2 (2=21-40%)	
